Results as given in patent US11958846B2, “Urea compounds and compositions as SMARCA2/BRM ATPase inhibitors” (Novartis AG, priority 2018, dated 2024).

What was measured:
[1] = target: Brm ATPase-SnAC (636-1331) (Homo sapiens, UniProt P51531); assay: BRM ATPase Inhibition Assay (ADP-Glo); assay type: biochemical; details: 5 nM BRM ATPase-SnAC, 85 μM ATP, 2 nM pCMV-dR8.91 plasmid, 60 min RT
Procedure: BRM ATPase Inhibition Assay
(§1) Compound inhibition of ATPase activity of Brm ATPase-SnAC (636-1331) was measured by using the ADP-Glo assay kit from Promega (V6930). 120 nL of compound in 100% DMSO were transferred to a white 384 well microtiter assay plate using an ATS Acoustic Transfer System from EDC Biosystems. All subsequent reagent additions were performed using a MultiFlo FX Multi-Mode Dispenser. Assay buffer was 20 mM HEPES pH 7.5, 1 mM MgCl2, 20 mM KCl, 1 mM DTT, 0.01% BSA, 0.005% Tween 20. 4 μL of 7.5 nM Brm ATPase-SnAC in assay buffer was added to the assay plate and incubated at RT for 5 min with compound. 2 μL of 255 μM ATP and 6 nM pCMV-dR8.91 plasmid in assay buffer was added to assay plate to initiate the reaction. The final concentrations of reagents were 5 nM BRM ATPase-SnAC, 85 μM ATP, and 2 nM pCMV-dR8.91 plasmid. The ATPase reaction was incubated at RT for 60 min. 3 μL of ADP-Glo reagent was added to stop the reaction and was incubated for 30 min at RT. 3 μL of Kinase detection reagent was added to the assay plate which was incubated for 90 min at RT. Plates were read with a 2103 Multilabel Envision reader using ultrasensitive luminescence detection. IC50 values were determined from the average of duplicate data points by non-linear regression analysis of percent inhibition values plotted versus compound concentration.
(§2) pCMV-dR8.91 Plasmid Used for BRM/BRG1 ATPase Inhibition Assays:
(§3) The plasmid template pCMV-dR8.91 (see sequence below) is propagated using One Shot Stbl3 Chemically Competent E. coli (Catalog Number C73C7303, Invitrogen/Thermo Fisher Scientific) following the transformation protocol provided with the reagent. Transformed bacterial colonies are then selected on LB agar plates containing ampicillin/carbenicllin antibiotic selection medium (Catalog Number L1010, Teknova). Bacterial colonies are grown in LB liquid broth (Catalog number 10855001, Invitrogen) containing ampicillin at 100 micrograms/mL and plasmid DNA isolated according to required scale according to the manufacturers protocol provided with the Qiagen Plasmid Isolation Kits (Maxi prep, Product Id Number 10063).

[2] = target: Brg1 ATPase-SnAC (658-1361) (Homo sapiens (Human), UniProt P51532); assay: BRG1 ATPase Inhibition Assay (ADP-Glo); assay type: biochemical; details: 5 nM Brg1 ATPase-SnAC, 65 μM ATP, 2 nM pCMV-dR8.91 plasmid, 60 min RT
Brg1 ATPase-SnAC (658-1361), sequence (P51532 other isoform, or with tags, fused parts or gaps): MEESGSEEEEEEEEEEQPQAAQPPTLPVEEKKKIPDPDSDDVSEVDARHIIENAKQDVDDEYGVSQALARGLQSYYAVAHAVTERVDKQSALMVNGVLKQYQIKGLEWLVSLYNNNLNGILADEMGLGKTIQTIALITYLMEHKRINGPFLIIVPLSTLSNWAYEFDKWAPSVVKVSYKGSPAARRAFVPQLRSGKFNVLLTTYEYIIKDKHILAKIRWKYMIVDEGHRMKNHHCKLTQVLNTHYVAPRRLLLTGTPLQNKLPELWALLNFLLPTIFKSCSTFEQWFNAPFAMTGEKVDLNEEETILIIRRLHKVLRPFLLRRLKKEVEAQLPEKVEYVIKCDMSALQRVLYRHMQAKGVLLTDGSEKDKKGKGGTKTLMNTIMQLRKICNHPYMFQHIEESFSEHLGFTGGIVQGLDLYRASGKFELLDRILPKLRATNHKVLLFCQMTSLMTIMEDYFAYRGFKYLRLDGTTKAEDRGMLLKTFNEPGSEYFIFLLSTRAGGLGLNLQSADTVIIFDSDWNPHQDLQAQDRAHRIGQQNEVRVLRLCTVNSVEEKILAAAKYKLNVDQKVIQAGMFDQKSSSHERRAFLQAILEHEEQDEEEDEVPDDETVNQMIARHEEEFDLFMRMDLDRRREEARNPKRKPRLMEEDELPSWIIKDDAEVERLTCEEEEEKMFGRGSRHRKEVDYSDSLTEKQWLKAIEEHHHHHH
Procedure: BRG1 ATPase Inhibition Assay
BRG1 ATPase Inhibition Activity
as §1, with “Brg1” for “Brm”, “(658-1361)” for “(636-1331)”, “195” for “255”, “Brg1” for “BRM”, “65” for “85”
as §2, §3

Brm ATPase-SnAC (636-1331), sequence (P51531 whole entry, looked up): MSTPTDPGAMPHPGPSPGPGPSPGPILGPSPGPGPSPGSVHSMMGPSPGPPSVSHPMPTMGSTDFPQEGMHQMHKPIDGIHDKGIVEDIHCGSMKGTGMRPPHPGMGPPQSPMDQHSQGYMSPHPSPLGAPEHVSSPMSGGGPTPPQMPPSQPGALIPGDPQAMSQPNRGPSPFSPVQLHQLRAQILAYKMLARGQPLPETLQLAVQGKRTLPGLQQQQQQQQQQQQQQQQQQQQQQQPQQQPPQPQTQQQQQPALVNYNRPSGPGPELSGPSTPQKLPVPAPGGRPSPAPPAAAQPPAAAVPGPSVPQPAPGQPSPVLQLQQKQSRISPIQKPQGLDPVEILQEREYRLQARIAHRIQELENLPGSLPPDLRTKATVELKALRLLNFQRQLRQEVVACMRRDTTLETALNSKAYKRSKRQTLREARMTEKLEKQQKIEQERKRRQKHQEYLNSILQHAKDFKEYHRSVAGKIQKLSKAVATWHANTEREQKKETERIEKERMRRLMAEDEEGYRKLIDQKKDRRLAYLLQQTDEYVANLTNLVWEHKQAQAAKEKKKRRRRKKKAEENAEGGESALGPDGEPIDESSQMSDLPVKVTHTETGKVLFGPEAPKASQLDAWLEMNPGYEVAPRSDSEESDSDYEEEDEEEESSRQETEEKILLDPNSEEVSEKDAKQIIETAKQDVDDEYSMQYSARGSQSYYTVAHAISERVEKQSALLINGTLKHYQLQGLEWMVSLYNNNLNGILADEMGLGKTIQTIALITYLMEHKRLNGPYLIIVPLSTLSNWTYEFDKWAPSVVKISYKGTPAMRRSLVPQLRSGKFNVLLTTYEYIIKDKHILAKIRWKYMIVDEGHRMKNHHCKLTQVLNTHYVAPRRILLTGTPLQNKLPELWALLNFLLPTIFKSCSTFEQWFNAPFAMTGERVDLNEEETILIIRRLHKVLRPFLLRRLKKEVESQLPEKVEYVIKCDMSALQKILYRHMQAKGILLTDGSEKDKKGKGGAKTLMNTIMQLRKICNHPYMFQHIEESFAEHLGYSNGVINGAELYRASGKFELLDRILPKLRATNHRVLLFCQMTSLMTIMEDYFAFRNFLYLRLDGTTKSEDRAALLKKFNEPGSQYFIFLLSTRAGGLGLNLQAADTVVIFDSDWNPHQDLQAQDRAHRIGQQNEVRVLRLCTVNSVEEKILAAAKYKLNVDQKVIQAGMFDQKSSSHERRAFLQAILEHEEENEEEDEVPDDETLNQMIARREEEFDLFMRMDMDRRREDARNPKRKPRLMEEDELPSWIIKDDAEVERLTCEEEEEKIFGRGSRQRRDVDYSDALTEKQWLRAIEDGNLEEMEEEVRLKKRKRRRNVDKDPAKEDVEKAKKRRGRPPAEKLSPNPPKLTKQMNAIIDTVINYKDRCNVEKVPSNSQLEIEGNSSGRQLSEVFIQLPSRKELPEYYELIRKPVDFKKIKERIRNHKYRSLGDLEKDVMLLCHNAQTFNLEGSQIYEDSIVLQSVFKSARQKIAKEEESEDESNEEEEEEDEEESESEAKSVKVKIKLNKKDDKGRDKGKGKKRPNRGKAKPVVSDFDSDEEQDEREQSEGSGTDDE

Structure (SMILES) | IC50 [1] | IC50 [2]
Nc1cnc(Cl)cc1NC(=O)Nc1cc(C(F)F)ns1 [Example 4, 1-(5-amino-2-chloropyridin-4-yl)-3-(3-(difluoromethyl)isothiazol-5-yl)urea] | < 5 nM | < 5 nM
Nc1cnc(F)cc1NC(=O)Nc1cc(C(F)F)ns1 [Example 6, 1-(5-amino-2-fluoropyridin-4-yl)-3-(3-(difluoromethyl)isothiazol-5-yl)urea] | < 5 nM | < 5 nM
O=C(Nc1ccnc(Cl)c1)Nc1cc(C(F)F)ns1 [Example 1, 1-(2-chloropyridin-4-yl)-3-(3-(difluoromethyl)isothiazol-5-yl)urea] | 5 nM | 6 nM
Cc1cc(NC(=O)Nc2ccnc(Cl)c2)sn1 [Example 2, 1-(2-chloropyridin-4-yl)-3-(3-methylisothiazol-5-yl)urea] | 33 nM | 30 nM

The remaining lines, values ahead:

IC50 [1] | IC50 [2] | Structure (SMILES)
< 5 nM | < 5 nM | O=C(Nc1cc(C(F)F)ns1)Nc1cc(Cl)ncc1CO [Example 5, 1-(2-chloro-5-(hydroxymethyl)pyridin-4-yl)-3-(3-(difluoromethyl)isothiazol-5-yl)urea]
< 5 nM | < 5 nM | O=C(Nc1cc(C(F)F)ns1)Nc1cc(F)ncc1CO [Example 7, 1-(3-(difluoromethyl)isothiazol-5-yl)-3-(2-fluoro-5-(hydroxymethyl)pyridin-4-yl)urea]
90 nM | 19 nM | O=C(Nc1cc(C(F)F)ns1)Nc1ccnc(F)c1CO [Example 8, 1-(3-(difluoromethyl)isothiazol-5-yl)-3-(2-fluoro-3-(hydroxymethyl)pyridin-4-yl)urea]
